According to US7304174B2, “CaSR antagonist” (Japan Tobacco Inc., priority 2003, dated 2007):

Key:
[1] = tested on: PTH secretion; experiment: PTH secretion action, Experimental Example 2 (serum PTH after oral administration); format: in vivo, male SD rats; conditions: comparative example, 30 mg/5 ml/kg oral
[2] = tested on: PTH secretion; experiment: Concomitant administration of test compound and estrogen: blood PTH with time; format: in vivo, ovariectomized rats
Description: The 13-week-old ovariectomized rats were divided into 4 groups of a control group (Group A), an estrogen administration group (Group B), a test compound administration group (Group C), and a test compound and estrogen concomitant administration group (Group D). One sham control group (E group) subjected to a sham surgery was also established. Estradiol was dissolved in 5% benzyl alcohol-corn oil and subcutaneously administered to an estrogen administration groups (Group B and Group D) at the dose of 10 μg/kg. 5% Benzyl alcohol-corn oil was subcutaneously administered to groups (Group A and Group C) free from administration of estrogen. The compound of Example 1-1 was suspended in 0.5% methyl cellulose solution and orally administered to groups (Group C and Group D) to be administered with the test compound at the dose of 3 mg/kg. As regards the groups (Group A and Group B) free from administration of the test compound, 0.5% methyl cellulose solution was orally administered.
In addition, blood was drawn with time for the measurement of blood PTH at day 16 of administration. The blood was drawn in each group from the tail vein immediately before oral administration and 0.25, 0.5, 1, 2 and 4 hr later, and serum was obtained. For serum PTH measurement, a commercially available ELISA kit (“rat intact PTH ELISA kit”, Immutopics) was used.

[3] = tested on: bone resorption; experiment: Concomitant administration of test compound and estrogen: bone resorption marker blood ICTP; format: in vivo, ovariectomized rats; conditions: day 13, exclusive administration (Group B estradiol 10 μg/kg s.c.; Group C Example 1-1 3 mg/kg oral), mean ± S.D., n = 5
Description: The 13-week-old ovariectomized rats were divided into 4 groups of a control group (Group A), an estrogen administration group (Group B), a test compound administration group (Group C), and a test compound and estrogen concomitant administration group (Group D). One sham control group (E group) subjected to a sham surgery was also established. Estradiol was dissolved in 5% benzyl alcohol-corn oil and subcutaneously administered to an estrogen administration groups (Group B and Group D) at the dose of 10 μg/kg. 5% Benzyl alcohol-corn oil was subcutaneously administered to groups (Group A and Group C) free from administration of estrogen. The compound of Example 1-1 was suspended in 0.5% methyl cellulose solution and orally administered to groups (Group C and Group D) to be administered with the test compound at the dose of 3 mg/kg. As regards the groups (Group A and Group B) free from administration of the test compound, 0.5% methyl cellulose solution was orally administered. On day 13 from the start of the administration, the blood was drawn in each group from the tail vein, and serum was obtained. ICTP, which is a blood bone resorption marker, was measured using a commercially available ELISA kit (“RatLaps ELISA kit”, Nordic Bioscience Diagnostics).

[4] = target: T1, CYP2D6 (Homo sapiens, UniProt P10635); experiment: Metabolic enzyme CYP2D6 inhibitory activity (inhibition measurement kit); format: in vitro ADME; conditions: enzyme activity free of test compound as 100%; >10 means over 10 μM
T1 construct: purchased BD Bioscience
T1 sequence (P10635 whole entry): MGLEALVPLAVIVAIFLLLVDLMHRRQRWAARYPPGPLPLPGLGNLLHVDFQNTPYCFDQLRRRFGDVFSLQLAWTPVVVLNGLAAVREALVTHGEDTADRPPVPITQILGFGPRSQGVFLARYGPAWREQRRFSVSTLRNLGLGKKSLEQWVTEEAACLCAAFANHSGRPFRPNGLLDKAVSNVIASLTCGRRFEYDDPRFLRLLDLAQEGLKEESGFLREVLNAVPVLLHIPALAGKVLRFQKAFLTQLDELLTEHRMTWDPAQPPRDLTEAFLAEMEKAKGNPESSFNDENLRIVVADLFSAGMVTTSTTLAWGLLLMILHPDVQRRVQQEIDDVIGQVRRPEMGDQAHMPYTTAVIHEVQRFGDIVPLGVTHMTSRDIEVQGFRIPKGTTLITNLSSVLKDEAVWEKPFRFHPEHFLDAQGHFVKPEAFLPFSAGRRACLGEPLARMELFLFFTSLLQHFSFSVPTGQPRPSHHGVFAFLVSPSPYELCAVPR
Description: Using a metabolic enzyme CYP2D6 inhibition measurement kit (BD Bioscience) and following the manual of the kit, the inhibitory activity of the test compound was measured. With the enzyme activity free of the test compound as 100%, the concentration (IC50) showing 50% inhibition was determined. The results are shown in Table 63 and Table 64, wherein “>10” means over 10 μM.

[5] = target: T2, human calcium receptor (Homo sapiens, UniProt P41180); experiment: Evaluation of antagonistic action on calcium receptor using reporter gene (luciferase); format: cell-based; conditions: transformed rat adrenal derived cells, 5 mM calcium chloride, culture 4 hrs, luciferase activity; read-out: Reporter gene assay (IC50, concentration showing 50% inhibitory rate)
T2 construct: expressed in transfected cells; host or cells: cell strain derived from rat adrenal, co-transformed with luciferase cDNA
T2 sequence (P41180 20-1078): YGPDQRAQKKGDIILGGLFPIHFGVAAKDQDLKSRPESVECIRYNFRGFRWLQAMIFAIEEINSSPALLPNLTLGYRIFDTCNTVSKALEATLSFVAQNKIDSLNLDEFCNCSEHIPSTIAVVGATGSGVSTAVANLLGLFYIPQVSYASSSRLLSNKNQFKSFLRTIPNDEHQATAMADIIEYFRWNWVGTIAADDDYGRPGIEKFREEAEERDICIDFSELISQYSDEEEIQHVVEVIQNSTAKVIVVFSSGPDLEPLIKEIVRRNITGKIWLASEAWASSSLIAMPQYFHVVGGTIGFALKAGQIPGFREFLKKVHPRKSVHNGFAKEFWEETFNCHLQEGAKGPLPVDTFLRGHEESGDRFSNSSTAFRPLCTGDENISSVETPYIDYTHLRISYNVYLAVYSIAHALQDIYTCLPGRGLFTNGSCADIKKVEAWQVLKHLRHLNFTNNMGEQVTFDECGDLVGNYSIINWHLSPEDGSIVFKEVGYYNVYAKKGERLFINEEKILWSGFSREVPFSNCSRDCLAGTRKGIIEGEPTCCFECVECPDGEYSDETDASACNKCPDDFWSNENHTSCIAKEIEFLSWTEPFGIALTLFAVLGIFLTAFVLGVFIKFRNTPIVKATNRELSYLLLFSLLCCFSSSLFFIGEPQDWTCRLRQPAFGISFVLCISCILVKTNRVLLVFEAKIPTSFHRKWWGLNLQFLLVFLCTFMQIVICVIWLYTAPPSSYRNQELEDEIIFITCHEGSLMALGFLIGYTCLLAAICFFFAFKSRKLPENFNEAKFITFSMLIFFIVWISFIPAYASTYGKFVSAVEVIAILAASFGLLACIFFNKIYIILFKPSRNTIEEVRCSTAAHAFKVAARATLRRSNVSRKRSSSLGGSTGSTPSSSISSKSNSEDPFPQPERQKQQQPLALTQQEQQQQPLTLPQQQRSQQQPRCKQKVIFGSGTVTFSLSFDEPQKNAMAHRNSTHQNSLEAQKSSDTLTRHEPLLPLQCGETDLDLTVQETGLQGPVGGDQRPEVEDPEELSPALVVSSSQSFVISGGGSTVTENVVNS
Summary of the method: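 Rat adrenal-derived cells transfected with luciferase and human calcium receptor cDNA, in F12 with 0.5% dialyzed horse serum and 0.25% dialyzed fetal bovine serum. Luciferase luminescence gave % inhibition vs control and blank; IC50 at 50% inhibition.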

[6] = tested on: PTH secretion; experiment: PTH secretion action, Experimental Example 3 (serum PTH after oral administration); format: in vivo, male SD rats; conditions: test compound administration group, 1 mg/5 ml/kg oral, rats fasted 20 hrs
Description: The test compound was orally administered to 5 to 9-week-old male SD rats (Charles River Japan, Inc.) fasted for 20 hrs, using a solvent (0.5% methyl cellulose solution) at a dose of 1 mg/5 ml/kg. A solvent alone was orally administered to the control group at a dose of 5 ml/kg. The blood was drawn from the tail vein immediately before and 15 min, 30 min after administration of the test compound, and serum was obtained. The serum PTH concentration was measured using rat PTH ELISA kit (Amersham Biosciences).

[7] = tested on: PTH release; conditions: OVX rat, cited from earlier work

Row | Compound | IC50 [4] [nM] | IC50 [5] [nM] | further results
1 | COc1ccc(-c2cccc(C(=O)O)c2)cc1C(OC[C@H](O)CNC(C)(C)Cc1ccc2ccccc2c1)C1CC1 (stereo partly drawn) | – | – | PTH secretion activity [1]: no PTH secretion activity was exhibited
2 | C[C@]12CC[C@@H]3c4ccc(O)cc4CC[C@H]3[C@@H]1CC[C@@H]2O [Estradiol, reference compound] | – | – | Change of blood PTH with time ([2]; Table 66, exclusive administration): increase in blood PTH was not observed; PTH (1–84) concentration 0.25 hr ([2]; day 16, 0.25 hr, exclusive administration (Group B estradiol; Group C Example 1-1 3 mg/kg oral)): 53.65 ± 56.31 pg/mL; PTH (1–84) concentration 0.5 hr ([2]; day 16, 0.5 hr, exclusive administration (Group B estradiol; Group C Example 1-1 3 mg/kg oral)): 56.55 ± 21.71 pg/mL; PTH (1–84) concentration 1 hr ([2]; day 16, 1 hr, exclusive administration (Group B estradiol; Group C Example 1-1 3 mg/kg oral)): 35.70 ± 21.30 pg/mL; PTH (1–84) concentration 2 hr ([2]; day 16, 2 hr, exclusive administration (Group B estradiol; Group C Example 1-1 3 mg/kg oral)): 41.94 ± 20.85 pg/mL; PTH (1–84) concentration 4 hr ([2]; day 16, 4 hr, exclusive administration (Group B estradiol; Group C Example 1-1 3 mg/kg oral)): 46.84 ± 14.62 pg/mL; PTH (1–84) concentration 0 hr ([2]; day 16, immediately before oral administration, exclusive administration (Group B estradiol 10 μg/kg s.c.; Group C Example 1-1 3 mg/kg oral)): 36.83 ± 14.45 pg/mL; Blood ICTP concentration [3]: 20.93 ± 3.18 ng/mL
3 | C[C@@H](OC[C@H](O)CNC(C)(C)Cc1ccc2ccccc2c1)c1ccccc1-c1ccc(C(=O)O)c(Cl)n1 [Example 1-35, 2-chloro-6-[2-[1-[(2R)-3-[[1-(naphthalen-2-yl)-2-methylpropan-2-yl]amino]-2-hydroxypropoxy]ethyl]phenyl]pyridine-3-carboxylic acid] | > 10000 | 10 | –
4 | Cc1ccc(CC(C)(C)NC[C@@H](O)CO[C@H](C)c2ccccc2-c2ccc(C(=O)O)c(Cl)n2)cc1F [Example 1-39, 2-chloro-6-[2-[1-[(2R)-3-[[1-(3-fluoro-4-methylphenyl)-2-methylpropan-2-yl]amino]-2-hydroxypropoxy]ethyl]phenyl]pyridine-3-carboxylic acid] | > 10000 | 12 | –
5 | CC(C)=Cc1cc(-c2ccccc2[C@@H](C)OC[C@H](O)CNC(C)(C)Cc2ccc(C)c(F)c2)ccc1C(=O)O [Example 1-48, 2′-[1-[(2R)-3-[[1-(3-fluoro-4-methylphenyl)-2-methylpropan-2-yl]amino]-2-hydroxypropoxy]ethyl]-3-(2-methyl-1-propenyl)biphenyl-4-carboxylic acid] | > 10000 | 2 | –
6 | Cc1cc(C(=O)O)ccc1-c1ccccc1[C@@H](C)OC[C@H](O)CNC(C)(C)Cc1ccc(Cl)c(Cl)c1 [Example 1-57, 2′-[1-[(2R)-3-[[1-(3,4-dichlorophenyl)-2-methylpropan-2-yl]amino]-2-hydroxypropoxy]ethyl]-2-methylbiphenyl-4-carboxylic acid] | > 10000 | 27 | –
7 | C[C@@H](OC[C@H](O)CNC(C)(C)Cc1ccc2ccccc2c1)c1ccccc1-c1ccc(C(=O)O)c(F)c1 [Example 1-59, 3-fluoro-2′-[1-[(2R)-3-[[1-(naphthalen-2-yl)-2-methylpropan-2-yl]amino]-2-hydroxypropoxy]ethyl]biphenyl-4-carboxylic acid] | > 10000 | 16 | –
8 | COc1cc(CC(C)(C)NC[C@@H](O)CO[C@H](C)c2ccccc2-c2ccc(C(=O)O)c(C)c2)ccc1C [Example 1-73, 2′-[1-[(2R)-3-[[1-(3-methoxy-4-methylphenyl)-2-methylpropan-2-yl]amino]-2-hydroxypropoxy]ethyl]-3-methylbiphenyl-4-carboxylic acid] | > 10000 | 7 | –
9 | COc1cc(-c2ccccc2[C@@H](C)OC[C@H](O)CNC(C)(C)Cc2ccc(C)c(F)c2)ccc1C(=O)O [Example 1-80, 2′-[1-[(2R)-3-[[1-(3-fluoro-4-methylphenyl)-2-methylpropan-2-yl]amino]-2-hydroxypropoxy]ethyl]-3-methoxybiphenyl-4-carboxylic acid] | > 10000 | 27 | –
10 | Cc1ccc(CC(C)(C)NC[C@@H](O)CO[C@H](C)c2ccccc2Oc2ccc(C(=O)O)cc2)cc1F [Example 2-1, 4-[2-[(1R)-[(2R)-3-[[1-(3-fluoro-4-methylphenyl)-2-methylpropan-2-yl]amino]-2-hydroxypropoxy]ethyl]phenoxy]benzoic acid] | – | 15 | Serum PTH concentration 15 min later ([6]; 15 min): 25.1 ± 2.3 pg/mL; Serum PTH concentration 30 min later ([6]; 30 min): 19.1 ± 0.9 pg/mL
11 | CC(OC[C@H](O)CNC(C)(C)Cc1cnc2ccccc2c1)c1ccccc1Oc1ccc(C(=O)O)cc1 (stereo partly drawn) [Example 2-5, 4-[2-[1-[(2R)-3-[[1-(quinolin-3-yl)-2-methylpropan-2-yl]amino]-2-hydroxypropoxy]ethyl]phenoxy]benzoic acid] | > 10000 | 57 | –
12 | rat PTH (1-34): rat parathyroid hormone fragment (1-34) administered to OVX rat (AVSEIQLMHNLGKHLASVERMQWLRKKLQDVHNF; Parathyroid hormone; UniProt P04089 32-65, looked up, fragment) | – | – | Time until blood PTH returned to the original level ([7]; 5 μg/kg): 2 h; Blood PTH concentration in 30 minutes ([7]; rat PTH (1-34) 5 μg/kg, NPS-2143 100 μmol/kg): about 175 pg/ml
